Experimental data taken from ChEMBL document CHEMBL3886736, “Substituted sulfonamides useful as antiapoptotic Bcl inhibitors” (2016).

Tests used:
[1] = biological target: Apoptosis regulator Bcl-2 (Homo sapiens, UniProt P10415); test: Fluorescence Polarization Assay (FPA): The assays were performed in black flat-bottom 384-well plates. The final assay volume was 50 μl prepared from additions of Gst-Bcl-2 (Bcl-2: GENBANK® Accession No. P10415), fluoresceinated 18-mer BIM peptide (NH2-[…]-[FAM]) (SEQ ID NO: 1), and test compounds in assay buffer consisting of 20 mM Sodium Phosphate, 1 mM EDTA, 50 mM NaCl, and 0.05% Pluronic Acid. The reaction was incubated at room temperature for 60 minutes and fluorescence polarization of the reaction was detected on the LJL Plate Reader. Inhibition data were calculated from mP values generated by the no protein control reactions for 100% inhibition and vehicle-only reactions for 0% inhibition. The final concentrations of reagents in the assay were 4.9 nM BCL-2, 5 nM fluoresceinated 18-mer BIM peptide and 1% DMSO.
Chain of Apoptosis regulator Bcl-2 (P10415 whole entry): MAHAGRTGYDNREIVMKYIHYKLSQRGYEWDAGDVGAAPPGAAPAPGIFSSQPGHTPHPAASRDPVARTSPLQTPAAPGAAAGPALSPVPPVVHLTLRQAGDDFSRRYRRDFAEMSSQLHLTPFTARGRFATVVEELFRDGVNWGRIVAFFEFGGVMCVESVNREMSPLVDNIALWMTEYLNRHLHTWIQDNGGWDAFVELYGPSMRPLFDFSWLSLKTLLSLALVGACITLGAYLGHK

Bcl-2-like protein 1 = Bcl-2-like protein 1 (Homo sapiens, UniProt Q07817); test: Fluorescence Resonance Energy Transfer Assay (FRET): The assays were performed in black flat-bottom 384-well plates. The final assay volume was 55 μl prepared from additions of Biotin-Bcl-xL (Bcl-xL: GENBANK® Accession No. Q07817), fluoresceinated 18-mer BIM peptide (NH2-[…]-[FAM]) (SEQ ID NO: 1), Streptavidin-Terbium FRET detection reagent, and test compounds in assay buffer consisting of 20 mM Sodium Phosphate, 1 mM EDTA, 50 mM NaCl, and 0.05% Pluronic Acid. The reaction was incubated at room temperature for 60 minutes. After 60 minutes, 5 μL of Streptavidin-Terbium FRET detection reagent (Perkin Elmer) was added to the reaction mixture and incubated at room temperature in the dark for 30 mins. The FRET signal generated by the reaction was detected on the Envision Plate Reader Inhibition data were calculated from FRET values generated by the no protein control reactions for 100% inhibition and vehicle-only reactions for 0% inhibition. The final concentration of reagents in the assay was 10 nM Bcl-xL, 5 nM fluo
Chain of Bcl-2-like protein 1 (Q07817 whole entry): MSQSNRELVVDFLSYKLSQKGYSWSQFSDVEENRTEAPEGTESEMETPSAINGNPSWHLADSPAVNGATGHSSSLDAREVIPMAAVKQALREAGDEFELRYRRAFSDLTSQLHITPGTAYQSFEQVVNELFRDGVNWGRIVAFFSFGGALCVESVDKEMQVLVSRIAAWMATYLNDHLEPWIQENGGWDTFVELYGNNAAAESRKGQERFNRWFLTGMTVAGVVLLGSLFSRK

Row | SMILES | IC50 [1] | IC50 (Bcl-2-like protein 1)
1 | CCCCN(CCCC)C(=O)c1cn(CCCN(C)C)c(-c2ccc(C(=O)NS(=O)(=O)c3ccc4ccccc4c3)cc2C(=O)N2CCc3ccccc3C2)n1 | 200 nM | 30 nM
2 | Cc1c(Cl)c(C(=O)NCc2ccc(-c3ccc(CC(=O)O)cc3)cc2)nn1-c1ccc(C(=O)NS(=O)(=O)c2ccc3c(c2)CCN3Cc2ccc(Cl)c(Cl)c2)cc1C(=O)N1CCc2ccccc2C1 | 50 nM | 8070 nM
3 | CCCCN(CCCC)C(=O)c1cn(CCN2CCOCC2)c(-c2ccc(C(=O)NS(=O)(=O)c3ccc4ccccc4c3)cc2C(=O)N2Cc3ccccc3C[C@H]2CO)n1 | 120 nM | 60 nM
